Test results from the supplement of paper PMC10307832.

Assays:
Experiment in all cases: relative viability (nuclei count vs DMSO), 5 days (fraction); higher = more cells survive
IPA-3 + Bortezomib = compound: C1=CC=C2C(=C1)C=CC(=C2SSC3=C(C=CC4=CC=CC=C43)O)O [IPA-3] + CC(C)C[C@H](NC(=O)[C@H](Cc1ccccc1)NC(=O)c1cnccn1)B(O)O [Bortezomib] (partner 0.002 µM)
How it was run: (§1)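 One day after seeding in 1536-well plates, lung cancer cell lines were dosed by pin tool. Dosing was either single-drug or a fixed anchor-drug dose plus five library-drug doses (not always all listed) in √10 steps. After 5 days, nuclei were stained in one fix-and-stain step and counted on 4× images, and relative viability is the nuclei count of treated wells over that of vehicle wells, given as the median of duplicate plates.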

Doramapimod + Foretinib = compound: Cc1ccc(-n2nc(C(C)(C)C)cc2NC(=O)Nc2ccc(OCCN3CCOCC3)c3ccccc23)cc1 [Doramapimod] + COc1cc2c(Oc3ccc(NC(=O)C4(C(=O)Nc5ccc(F)cc5)CC4)cc3F)ccnc2cc1OCCCN1CCOCC1 [Foretinib] (partner 0.25 µM)
How it was run: as §1

Doramapimod + Crizotinib = compound: Cc1ccc(-n2nc(C(C)(C)C)cc2NC(=O)Nc2ccc(OCCN3CCOCC3)c3ccccc23)cc1 [Doramapimod] + C[C@@H](Oc1cc(-c2cnn(C3CCNCC3)c2)cnc1N)c1c(Cl)ccc(F)c1Cl [Crizotinib] (partner 1 µM)
How it was run: as §1

Doramapimod + Olaparib = compound: Cc1ccc(-n2nc(C(C)(C)C)cc2NC(=O)Nc2ccc(OCCN3CCOCC3)c3ccccc23)cc1 [Doramapimod] + O=C(c1cc(Cc2n[nH]c(=O)c3ccccc23)ccc1F)N1CCN(C(=O)C2CC2)CC1 [Olaparib] (partner 8 µM)
How it was run: as §1

UMC-11
relative viability (IPA-3 + Bortezomib; first compound 0.2 µM): 0.923
relative viability (IPA-3 + Bortezomib; first compound 0.6325 µM): 0.767
relative viability (IPA-3 + Bortezomib; first compound 2 µM): 0.845
relative viability (IPA-3 + Bortezomib; first compound 6.325 µM): 0.726
relative viability (IPA-3 + Bortezomib; first compound 20 µM): 0.986
relative viability (Doramapimod + Foretinib; first compound 0.02 µM): 0.954
relative viability (Doramapimod + Foretinib; first compound 0.06325 µM): 0.936
relative viability (Doramapimod + Foretinib; first compound 0.2 µM): 0.932
relative viability (Doramapimod + Foretinib; first compound 0.6325 µM): 0.988
relative viability (Doramapimod + Foretinib; first compound 2 µM): 0.982
relative viability (Doramapimod + Crizotinib; first compound 0.02 µM): 0.58
relative viability (Doramapimod + Crizotinib; first compound 0.06325 µM): 0.623
relative viability (Doramapimod + Crizotinib; first compound 0.2 µM): 0.608
relative viability (Doramapimod + Crizotinib; first compound 0.6325 µM): 0.609
relative viability (Doramapimod + Crizotinib; first compound 2 µM): 0.567
relative viability (Doramapimod + Olaparib; first compound 0.02 µM): 0.353
relative viability (Doramapimod + Olaparib; first compound 0.06325 µM): 0.348
relative viability (Doramapimod + Olaparib; first compound 0.2 µM): 0.274
relative viability (Doramapimod + Olaparib; first compound 0.6325 µM): 0.963
relative viability (Doramapimod + Olaparib; first compound 2 µM): 0.365
